Data on six molecules can be found in patent US11359200B2, “Cancer treatment by MALAT1 inhibition” (THE CLEVELAND CLINIC FOUNDATION, priority 2017, dated 2022).

In one data set the test system is MALAT1. Description: MALAT1 knock-down in MM cells by qRT-PCR. The class given is cell-based, Human. Conditions: H929, MM.1S and RPMI8226 cells, 48 h after transfection. As for the experimental part:
(§1) For anti-MALAT1 transfection and ABT-888 (Santa Cruz Biotechnology Inc) or bortezomib (MilliporeSigma) treatment, MM cells were seeded on 12-well plates at a concentration of 5×10^5 cells/mL. The cells were transfected using Lipofectamine 2000 (Thermo Fisher Scientific) with 1 nM control or anti-MALAT1 oligos for 24 hours and then treated with a gradient concentration of ABT-888 or bortezomib for another 24 hours. Cells were subjected to proliferation and apoptosis assays, qRT-PCR, and immunoblotting.
Quantitative RT-PCR (qRT-PCR) analysis was used to determine the relative expression level of MALAT1. Total RNA was extracted from cells or tissues using Trizol Reagent (Thermo Fisher Scientific) according to the manufacturer's instructions. After Turbo DNase (Thermo Fisher Scientific) treatment, 500 ng total RNA was subjected to reverse transcription using the RevertAid first-stand cDNA synthesis kit (Thermo Fisher Scientific). Quantitative PCR using SYBR Green PCR master mix (Thermo Fisher Scientific) was employed to determine MALAT1 level with PCR cycle conditions of 95° C. 10 min, 95° C. 15 s, and 60° C. 1 min, for 40 cycles. GAPDH was used as loading control.
In general terms: Real-time PCR tracks product formation cycle by cycle.

Another data set has as its system γH2A.X. Description: Immunofluorescence staining and western blot for γH2A.X after MALAT1 knock-down. The data set is classed as cell-based, Human. The conditions noted are these: H929, MM.1S and RPMI8226 cells, 48 h after transfection. As for the experimental part: Protein was extracted from cells using RIPA buffer (Thermo Fisher Scientific) containing protease inhibitor cocktail (Roche) and phosphatase inhibitor cocktail (Thermo Fisher Scientific). Protein extracts were boiled in SDS/β-mercaptoethanol sample buffer, and 30 μg samples were loaded into each well on 4%-12% polyacrylamide gels (Thermo Fisher Scientific). The proteins were separated by electrophoresis, and the proteins in the gels were blotted onto PVDF membranes (Thermo Fisher Scientific) by electrophoretic transfer. […] The specific protein—antibody complex was detected with horseradish peroxidase-conjugated rabbit anti-mouse IgG. […]
On the technique in general: In western blotting, separated proteins are transferred to a membrane and probed.

The target of the next data set is T1, PARP1 (Homo sapiens, UniProt P09874).
T1 construct: Protein was extracted from cells using RIPA buffer; endogenous in cells; host or cells: H929, MM.1S (human multiple myeloma cell lines, ATCC)
T1 sequence (P09874 whole entry): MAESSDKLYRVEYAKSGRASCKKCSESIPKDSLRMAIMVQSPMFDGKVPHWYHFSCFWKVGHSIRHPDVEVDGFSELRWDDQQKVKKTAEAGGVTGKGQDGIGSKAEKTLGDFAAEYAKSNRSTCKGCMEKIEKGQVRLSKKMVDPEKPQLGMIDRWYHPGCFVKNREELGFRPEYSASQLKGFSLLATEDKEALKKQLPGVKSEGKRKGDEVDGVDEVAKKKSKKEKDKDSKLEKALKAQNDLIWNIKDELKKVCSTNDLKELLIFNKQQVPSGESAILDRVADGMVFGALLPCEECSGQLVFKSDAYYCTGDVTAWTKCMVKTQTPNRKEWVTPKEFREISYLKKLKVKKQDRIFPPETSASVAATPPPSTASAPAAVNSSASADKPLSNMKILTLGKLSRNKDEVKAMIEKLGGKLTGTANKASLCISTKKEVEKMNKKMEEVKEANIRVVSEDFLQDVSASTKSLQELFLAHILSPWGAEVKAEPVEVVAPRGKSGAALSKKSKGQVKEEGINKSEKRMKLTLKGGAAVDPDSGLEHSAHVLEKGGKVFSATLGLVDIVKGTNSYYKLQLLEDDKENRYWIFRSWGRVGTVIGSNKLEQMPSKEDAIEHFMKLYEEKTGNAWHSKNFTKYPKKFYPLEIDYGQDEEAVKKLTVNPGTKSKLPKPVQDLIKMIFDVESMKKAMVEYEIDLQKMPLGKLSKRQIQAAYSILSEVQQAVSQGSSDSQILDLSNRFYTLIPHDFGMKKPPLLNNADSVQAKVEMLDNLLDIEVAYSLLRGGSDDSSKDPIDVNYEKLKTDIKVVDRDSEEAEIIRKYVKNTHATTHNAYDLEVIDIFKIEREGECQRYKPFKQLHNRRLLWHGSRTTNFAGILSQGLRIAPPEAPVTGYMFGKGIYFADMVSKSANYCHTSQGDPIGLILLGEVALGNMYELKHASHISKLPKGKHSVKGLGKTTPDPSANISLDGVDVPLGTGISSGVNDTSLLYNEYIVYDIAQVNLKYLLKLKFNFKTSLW
Description: Immunoblotting after anti-MALAT1 and ABT-888 treatment. The class given is cell-based. As for the experimental part: (§2) Cells were subjected to proliferation and apoptosis assays, qRT-PCR, and immunoblotting.
(§3) Protein was extracted from cells using RIPA buffer (Thermo Fisher Scientific) containing protease inhibitor cocktail (Roche) and phosphatase inhibitor cocktail (Thermo Fisher Scientific). Protein extracts were boiled in SDS/β-mercaptoethanol sample buffer, and 30 μg samples were loaded into each well on 4%-12% polyacrylamide gels (Thermo Fisher Scientific). The proteins were separated by electrophoresis, and the proteins in the gels were blotted onto PVDF membranes (Thermo Fisher Scientific) by electrophoretic transfer. […] The specific protein—antibody complex was detected with horseradish peroxidase-conjugated rabbit anti-mouse IgG. Detection by chemiluminescence reaction was carried using the SuperSignal West Femto Maximum Sensitivity Substrate kit (Thermo Fisher Scientific). β-actin was used as a loading control.

The next data set concerns H929 cells. Nature of the data set: Cell viability assay, bortezomib with or without MALAT1 knockdown. The conditions noted are these: Homo sapiens. The data set is classed as cell-based. As for the experimental part: as §1
(§4) MM cell lines (MM.1S, H929 and RPMI8226) and drug resistant MM cell lines (RPMI8226/LR5, RPMI8226/DOX40 and RPMI8226/V10R) were treated with anti-MALAT1 oligos for 24 hours. 2×10^4 cells/well were seeded in a 96-well plate with 100 μL medium containing gradient concentration of bortezomib, melphalan or doxorubicin per well. After 72 hours culture, cells were subjected to cell viability assay using CellTilter 96® Aqueous One Solution Cell Proliferation Assay (Promega Corporation), according to the manufacturer's instructions. The half maximal inhibitory concentration (IC50) was calculated by Graphpad Prism V5.0.

Another data set has as its system MM.1S cells. The description is as above. The data set is classed as cell-based. Conditions: Homo sapiens, MM1.S. As for the experimental part: as §1, §4
For the next data set, the system named is RPMI8226 cells. The description is as above. The conditions noted are these: Homo sapiens, RPMI-8226, third cell line (RPMI8226, FIG. 6C). The data set is classed as cell-based. On the procedure:
as §1, §4

Another data set relates to RPMI8226/V10R cells. Description: Cell viability assay, bortezomib-resistant cells. The conditions noted are these: Homo sapiens, RPMI-8226, 72 h. The data set is classed as cell-based. As for the experimental part: (§5) For the drug resistant cells, RPMI8226/DOX40, RPMI8226/LR5 and RPMI8226/V10R cells were transfected with 1 nM control or anti-MALAT1 oligos separately for 24 hours and treated with a gradient concentration of doxorubicin for RPMI8226/DOX40, or melphalan for RPMI8226/LR5, or bortezomib for RPMI8226/V10R for 72 hours. Cell were subjected to qRT-PCR, proliferation and apoptosis assays.
as §4

In data set [1] the test system is H929, MM.1S and RPMI8226 cells. Description: MM cell apoptosis assay (annexin V/PI flow cytometry). The data set is classed as cell-based, Human. The conditions noted are these: high-/low-dose bortezomib treatment. As for the experimental part: as §1
After transfection of cells with anti-MALAT1 #1 or #2 and control, apoptosis was evaluated by assaying for annexin V. Cells were stained with APC Annexin V Apoptosis Detection Kit with PI (BioLegend), according to the manufacturer's instructions. Stained cells were analyzed using flow cytometry, and data were analyzed using Flowjo software (Ashland).
Background: Flow cytometry measures light scatter and fluorescence of single cells or particles in a stream.

The next data set concerns BRCA1 and BRCA2. Description: Immunoblotting of BRCA1 and BRCA2 after bortezomib treatment. The class given is cell-based, Human. Conditions: H929, MM.1S and RPMI8226, high-dose bortezomib. On the procedure: as §2, §3
The subject of a further data set is RPMI8226/DOX40 cells. Nature of the data set: Cell viability assay, doxorubicin-resistant cells. The conditions noted are these: Homo sapiens, RPMI-8226, 72 h. The data set is classed as cell-based. As for the experimental part:
as §5, §4

For a further data set, the system named is RPMI8226/LR5 cells. Nature of the data set: Cell viability assay, melphalan-resistant cells. The data set is classed as cell-based. The conditions noted are these: Homo sapiens, RPMI-8226, 72 h. As for the experimental part:
as §5, §4

The mark [2] stands for this setting: transfected with 1 nM anti-MALAT1, 72 hours.

In general, IC50 refers to the concentration that inhibits the measured activity by half. High values mean lower potency, low ones higher potency.

d = 2'-deoxy (DNA); m = 2'-O-methyl

For the molecule “5′-mC*mG*mA*mA*mA*C*A*T*T*G*G*C*A*C*A*mC*mA*mG*mC*mA-3′ (antisense CGAAACATTGGCACACAGCA; sugars from the 5' end m5 d10 m5, all phosphorothioate, methylation of C not given here) [anti-MALAT1-1]”, the “MALAT1 level (qRT-PCR)” value in the data set with MALAT1 is reported as “efficiently knocked-down”. Moreover, the “frequency of DNA break (γH2A.X)” value with γH2A.X is “increased substantially”.

For “5′-mG*mG*mC*mA*mU*A*T*G*C*A*G*A*T*A*A*mU*mG*mU*mU*mC-3′ (antisense GGCAUATGCAGATAAUGUUC; sugars from the 5' end m5 d10 m5, all phosphorothioate, methylation of C not given here) [anti-MALAT1-2]”, in the data set on MALAT1, the “MALAT1 level (qRT-PCR)” value is on record as “efficiently knocked-down”. Besides, the “frequency of DNA break (γH2A.X)” value in the data set on γH2A.X is recorded as “increased substantially”.

On to `C[C@]1(c2nc3c(C(N)=O)cccc3[nH]2)CCCN1` [ABT888], for which the PAR signal entry at PARP1 (H929 and MM.1S, treated synchronously with anti-MALAT1 and ABT888) is listed as “dose-dependent decreased”. Moreover, at PARP1 (combination treatment anti-MALAT1 and ABT888), the “level of γH2A.X, cleaved PARP1, and cleaved caspase-3” value is listed as “significantly increased”.

As to `CC(C)C[C@H](NC(=O)[C@H](Cc1ccccc1)NC(=O)c1cnccn1)B(O)O` [bortezomib], the IC50 with H929 cells (NCI-H929, H929 cells transfected with 1 nM anti-MALAT1) was found to be 3.6 nM; in the data set on H929 cells (NCI-H929, H929 cells, control (before MALAT1 knockdown)), 4.9 nM; in the data set on MM.1S cells (MM.1S cells transfected with 1 nM anti-MALAT1), 6.6 nM; with MM.1S cells (MM.1S cells, control (before MALAT1 knockdown)) it was 8.9 nM; in the data set with RPMI8226 cells (control), 10.1 nM; with RPMI8226 cells (transfected with 1 nM anti-MALAT1), 8.2 nM. Moreover, the IC50 in the data set with RPMI8226/V10R cells (control oligos, 72 hours) came out at 194 nM; with RPMI8226/V10R cells (setting [2]), 144 nM. Besides, the “γH2A.X signals and apoptosis ratio” value in [1] was “increased”. Besides, in the data set with BRCA1 and BRCA2, the “expression of BRCA1 and BRCA2” value is given as “dramatically down-regulated”.

For `COc1cccc2c1C(=O)c1c(O)c3c(c(O)c1C2=O)C[C@@](O)(C(=O)CO)C[C@@H]3O[C@H]1C[C@H](N)[C@H](O)[C@H](C)O1` [doxorubicin], the IC50 is 2460 nM with RPMI8226/DOX40 cells (control oligos, 72 hours) and 1480 nM with RPMI8226/DOX40 cells (setting [2]).

For `N[C@@H](Cc1ccc(N(CCCl)CCCl)cc1)C(=O)O` [melphalan], the IC50 in the data set on RPMI8226/LR5 cells (control oligos, 72 hours) came out at 53400 nM; with RPMI8226/LR5 cells (setting [2]), 34000 nM.
